# Key:
# [1] = test system: patients with macular degeneration; experiment: Clinical study in patients with macular degeneration, adjuvant to photodynamic therapy with verteporfin; assay type: in vivo, human; settings: about 20 mg/day as adjuvant to verteporfin photodynamic therapy for 20 weeks
# Method: Selective cytokine inhibitory drugs of the invention are administered in an amount of about 20 to about 1,200 mg per day to patients with macular degeneration. In a specific embodiment, clinical studies are performed with forty patients with macular degeneration, who are divided into two groups. The first group receives conventional treatment for closing the leaking choroidal vessels (characteristic of this disease) by photodynamic therapy with verteporfin. Ophthalmol 1999 (117): 1329-1345. The second group receives the same conventional therapy with verteporfin and (+)-2-[1-(3-ethoxy-4 methoxy-phenyl)-2-methylsulfonylethyl]-4 acetylaminoisoindoline 1,3-dione in an amount of about 20 mg/day as an adjuvant for 20 weeks.
# However, the first group without (+)-2-[1-(3-ethoxy-4 methoxyphenyl)-2-methylsulfonylethyl]-4 acetylaminoisoindoline 1,3-dione experiences progressive reperfusion of the ablated vessels several weeks after treatment. Progressive visual loss follows which requires the photodynamic therapy to be repeated.
# TNF-α production = experiment: In vitro pharmacology studies: inhibition of TNF-α production following LPS-stimulation of human PBMC and human whole blood; assay type: cell-based; settings: compared with thalidomide
# Excerpt: One of the biological effects typically exerted by selective cytokine inhibitory drugs is the reduction of synthesis of TNF-α. Specific selective cytokine inhibitory drugs enhance the degradation of TNF-α mRNA. TNF-α may play a pathological role in macular degeneration.
# In a specific embodiment, the pharmacological properties of 3-(3,4-dimethoxy-phenyl)-3-(1-oxo-1,3-dihydro-isoindol-2-yl)-propionamide are characterized in in vitro studies. Studies examine the effects of the compound on the production of various cytokines. Inhibition of TNF-α production following LPS-stimulation of human PBMC and human whole blood by the compound is investigated in vitro. […] The pharmacological effects of 3-(3,4-dimethoxy-phenyl)-3-(1-oxo-1,3-dihydro-isoindol-2-yl)-propionamide may derive from its action as an inhibitor of the generation of inflammatory cytokines.
# laser-induced CNVM = settings: intravitreal injection, monkeys; cited from earlier work
# patients with MD = settings: intravitreal injection, one-year period, randomized trial; cited from earlier work
# MD = settings: cited from earlier work
# [2] = animal models; cited from earlier work
molecule,measurement,setting,value
"CCOc1cc(C(CS(C)(=O)=O)N2C(=O)c3cccc(NC(C)=O)c3C2=O)ccc1OC (single isomer, unassigned; (+)) [(+)-2-[1-(3-ethoxy-4 methoxyphenyl)-2-methylsulfonylethyl]-4 acetylaminoisoindoline 1,3-dione]",effect on neovascular cascade / duration of effects of photodynamic therapy,[1],neovascular cascade is sufficiently hindered
"COc1ccc(C(CC(N)=O)N2Cc3ccccc3C2=O)cc1OC (stereo not shown) [3-(3,4-Dimethoxy-phenyl)-3-(1-oxo-1,3-dihydro-isoindol-2-yl)-propionamide]","pharmacological activity profile, potency relative to thalidomide",TNF-α production,five to fifty times more potent than thalidomide
C[C@]12C=CC(=O)C=C1CC[C@H]1[C@@H]3C[C@@H](O)[C@](O)(C(=O)CO)[C@@]3(C)C[C@H](O)[C@@]12F [triamcinolone],growth of laser-induced CNVM,laser-induced CNVM,inhibits the growth of laser-induced CNVM
same,prevention of severe visual loss,patients with MD,fails to prevent severe visual loss
interferon-α,efficacy at treating MD,"MD; clinical trial, Arch. Ophthalmol. 115:865-72 (1997)",ineffective at treating MD
same,adverse effects,"MD; human, in vivo",high rate of adverse effects
verteporfin,accumulation in tissue,[2],also accumulates in the retina
